Reference: article PMC8655237 (Journal of Advanced Research, 2021)
Where two headings read alike, the source gives them in different places.

Columns and labels:
[1] = tested on: HEK-293; test: Cytotoxicity to normal cell line; type: cell-based, human; settings: higher tested concentration (100 µM)
[2] = tested on: MDA-MB-231; test: NRU antiproliferative assay; type: cell-based; settings: Homo sapiens, MDA-MB-231, 24 h, read-out: IC50 (NRU)
[3] = tested on: K562; test: Cell cycle analysis by flow cytometry; type: cell-based, human; settings: K562, 24 h
[4] = ref https://chem.nlm.nih.gov/chemidplus/rn/3623–51-6; cited from earlier work
[5] = tested on: A549; test: Cell cycle analysis by flow cytometry; type: cell-based, human; settings: A549, 24 h
[6] = tested on: Ornithine decarboxylase (ODC); test: ODC assay, cell-free; type: biochemical; settings: read-out: IC50 ODC; cell free (In vitro)
[7] = tested on: CAT D mRNA; test: Real-time qPCR expression analysis; type: cell-based, human; settings: GAPDH internal control
[8] = tested on: PC-3; test: SRB antiproliferative assay; type: cell-based; settings: Homo sapiens, PC-3, 24 h, read-out: IC50 (SRB)
[9] = tested on: A431; test: MTT antiproliferative assay; type: cell-based; settings: Homo sapiens, A-431, 24 h, read-out: IC50 (MTT)
[10] = target: T1, Cathepsin D (CATD) (Homo sapiens, UniProt P07339); test: Cathepsin D assay, cell-based; settings: IC50 CAT D
[11] = tested on: FaDu; test: Cell cycle analysis by flow cytometry; type: cell-based, human; settings: 24 h
[12] = tested on: hyaluronidase (HYAL); test: Hyaluronidase assay, cell-free; type: biochemical; settings: cell-free system
[13] = target: T1, Cathepsin D (CATD); test: Cathepsin D assay, cell-free
[14] = tested on: Ehrlich Ascites Carcinoma (EAC); test: Ehrlich ascites carcinoma; type: in vivo, Swiss albino mice; settings: for reduction of EAC tumor cells (tumor growth inhibition): day 1-9
[15] = tested on: A549; test: NRU antiproliferative assay; type: cell-based; settings: Homo sapiens, A549, 24 h, read-out: IC50 (NRU)
[16] = Acute oral toxicity; type: in vivo, Swiss albino mice; settings: up to 1000 mg/kg body weight
[17] = tested on: panel of organ-specific human cancer and normal cell lines; test: Antiproliferative activity over the cell line panel; type: cell-based; settings: read-out: IC50 range in all the tested assay systems
[18] = tested on: COX-2 mRNA; test: Real-time qPCR expression analysis; type: cell-based, human; settings: GAPDH internal control
[19] = tested on: hyaluronidase (HYAL); test: Hyaluronidase assay, cell-based; set-up: species or system human
[20] = tested on: A431 cells; test: DCFH-DA ROS assay; type: cell-based, human; settings: A431, highest concentration, 24 h, spectrofluorometer
[21] = target: tubulin protein (Sus scrofa, UniProt P02550+P02554); test: Tubulin polymerization assay; type: biochemical; settings: 100 μM
[22] = tested on: ODC mRNA; test: Real-time qPCR expression analysis; type: cell-based, human; settings: GAPDH internal control
[23] = tested on: PI3K; test: PI3K quantification by ELISA in A431 cells; type: cell-based, human; settings: A431, 100 µM, 24 h
[24] = tested on: A431; test: SRB antiproliferative assay; type: cell-based; settings: Homo sapiens, A-431, 24 h, read-out: IC50 (SRB)
[25] = tested on: A431 cells; test: Mitochondrial membrane potential; type: cell-based, human; settings: for total of FITC mean (Rh123): A431, flow cytometry
[26] = target: T2, COX-2 (Homo sapiens, UniProt P35354); test: COX-2 assay, cell-free; type: biochemical
T2 sequence (P35354 18-604): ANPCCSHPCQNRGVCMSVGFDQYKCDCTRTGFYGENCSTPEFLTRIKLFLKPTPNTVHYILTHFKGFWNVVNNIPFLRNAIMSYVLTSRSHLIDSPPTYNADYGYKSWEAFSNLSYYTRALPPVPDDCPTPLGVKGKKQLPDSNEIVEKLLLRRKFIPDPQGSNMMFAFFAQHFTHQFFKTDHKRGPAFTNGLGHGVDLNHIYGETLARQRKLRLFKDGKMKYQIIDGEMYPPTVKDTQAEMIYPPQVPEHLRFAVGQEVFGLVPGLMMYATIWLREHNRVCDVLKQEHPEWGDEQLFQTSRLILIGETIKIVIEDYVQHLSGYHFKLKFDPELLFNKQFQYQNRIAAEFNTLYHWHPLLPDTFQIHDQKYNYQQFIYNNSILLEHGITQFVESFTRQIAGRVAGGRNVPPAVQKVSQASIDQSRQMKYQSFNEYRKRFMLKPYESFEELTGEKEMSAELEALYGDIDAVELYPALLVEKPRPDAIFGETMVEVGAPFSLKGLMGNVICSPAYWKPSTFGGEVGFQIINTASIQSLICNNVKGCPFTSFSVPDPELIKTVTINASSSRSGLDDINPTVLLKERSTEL

[27] = tested on: A431; test: Cell cycle analysis by flow cytometry; type: cell-based, human; settings: A431, 24 h
[28] = tested on: LOX-5 mRNA; test: Real-time qPCR expression analysis; type: cell-based, human; settings: GAPDH internal control
[29] = tested on: AKT; test: AKT quantification by ELISA in A431 cells; type: cell-based, human; settings: A431, 100 µM, 24 h
[30] = tested on: MDA-MB-231; test: Cell cycle analysis by flow cytometry; type: cell-based, human; settings: MDA-MB-231, 24 h
[31] = MDA-MB-231, with respect to control

T1 sequence (P07339 65-412): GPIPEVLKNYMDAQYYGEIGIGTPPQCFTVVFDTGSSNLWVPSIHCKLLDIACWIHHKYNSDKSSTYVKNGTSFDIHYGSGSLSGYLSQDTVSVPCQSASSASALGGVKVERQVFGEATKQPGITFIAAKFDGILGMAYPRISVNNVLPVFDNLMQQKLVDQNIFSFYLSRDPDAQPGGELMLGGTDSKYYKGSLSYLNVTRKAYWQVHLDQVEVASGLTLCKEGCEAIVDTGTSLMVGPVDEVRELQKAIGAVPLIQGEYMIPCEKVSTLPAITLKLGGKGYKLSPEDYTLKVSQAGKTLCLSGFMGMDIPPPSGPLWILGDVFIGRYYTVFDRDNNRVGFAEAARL
Chain of tubulin protein (P02550 whole entry): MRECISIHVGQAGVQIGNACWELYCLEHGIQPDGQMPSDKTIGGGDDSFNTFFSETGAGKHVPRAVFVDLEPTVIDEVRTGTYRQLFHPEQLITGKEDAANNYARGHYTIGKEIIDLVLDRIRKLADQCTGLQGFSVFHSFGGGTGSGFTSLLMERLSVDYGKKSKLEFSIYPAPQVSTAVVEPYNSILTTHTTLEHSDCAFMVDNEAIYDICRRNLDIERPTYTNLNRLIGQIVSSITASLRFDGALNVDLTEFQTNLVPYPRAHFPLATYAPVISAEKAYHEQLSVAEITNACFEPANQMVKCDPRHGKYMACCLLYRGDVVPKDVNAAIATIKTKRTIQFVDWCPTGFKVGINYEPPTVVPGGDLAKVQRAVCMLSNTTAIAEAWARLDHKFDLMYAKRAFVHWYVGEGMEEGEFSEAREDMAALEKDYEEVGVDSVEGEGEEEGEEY
Chain of tubulin protein (P02554 whole entry): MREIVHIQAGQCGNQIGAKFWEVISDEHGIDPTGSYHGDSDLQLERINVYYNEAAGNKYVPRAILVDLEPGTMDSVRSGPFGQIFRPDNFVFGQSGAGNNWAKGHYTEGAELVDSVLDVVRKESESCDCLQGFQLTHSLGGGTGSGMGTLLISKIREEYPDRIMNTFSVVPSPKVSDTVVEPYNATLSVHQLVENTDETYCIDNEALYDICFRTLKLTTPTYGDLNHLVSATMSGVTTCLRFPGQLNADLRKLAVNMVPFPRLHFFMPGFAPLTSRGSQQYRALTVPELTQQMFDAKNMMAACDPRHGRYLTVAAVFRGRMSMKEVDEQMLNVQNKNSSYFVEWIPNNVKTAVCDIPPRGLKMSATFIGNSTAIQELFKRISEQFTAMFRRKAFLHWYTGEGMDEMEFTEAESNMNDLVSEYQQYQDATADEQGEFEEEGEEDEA

Compound: CC(C)[C@@H]1CC[C@@H](C)C[C@@H]1O [neomenthol, (+)-Neomenthol]
- cytotoxicity to HEK-293 [1]: non-cytotoxic
- IC50 [2]: 34.7 ± 9.96 µM
- cell cycle phase arrested [3]: arrest of the G0/G1 phase
- LD50 [4]: 4000 mg/kg
- cell cycle phase arrested [5]: G2/M phase
- IC50 [6]: 20.2 ± 1.09 µM
- CAT D mRNA expression level ([7]; A431, with respect to control): 1.19 fold change
- CAT D mRNA expression level ([7]; A549, with respect to control): 1.37 fold change
- CAT D mRNA expression level ([7]; FaDu, with respect to control): 1.31 fold change
- CAT D mRNA expression level ([7]; K562, with respect to control): 1.24 fold change
- CAT D mRNA expression level [7, 31]: 1.15 fold change
- CAT D mRNA expression level ([7]; PC-3, with respect to control): 1.35 fold change
- IC50 [8]: 16.4 ± 3.87 µM
- IC50 [9]: 17.3 ± 6.49 µM
- IC50 ([10]; A549): 62 ± 2.08 µM
- IC50 ([10]; FaDu): 74.62 ± 0.21 µM
- IC50 ([10]; K562): 57.5 ± 14 µM
- cell cycle phase arrested [11]: G2/M phase
- inhibition of hyaluronidase enzyme activity [12]: 24.9 ± 4.31%
- IC50 [13]: 30.4 ± 6.44 µM
- reduction of EAC tumor cells (tumor growth inhibition) ([14]; 50 mg/kg bw i.p.): 23.98%
- survival rate higher compared to EAC harbored mice ([14]; 75 mg/kg body weight): 17%
- survival of EAC harbored mice (survived till) ([14]; 75 mg/kg body weight, untreated EAC mice died within 24 days): 27 days
- reduction of EAC tumor cells (tumor growth inhibition) ([14]; 75 mg/kg bw i.p.): 58.84%
- IC50 [15]: 48.1 ± 4.97 µM
- acute oral toxicity outcome [16]: safe and non-toxic
- IC50 [17]: 16.4 to 99.3 µM
- COX-2 mRNA expression level ([18]; A431, with respect to control): 1.34 fold change
- COX-2 mRNA expression level ([18]; A549, with respect to control): 1.09 fold change
- COX-2 mRNA expression level ([18]; FaDu, with respect to control): 1.38 fold change
- COX-2 mRNA expression level [18, 31]: 1.16 fold change
- COX-2 mRNA expression level ([18]; PC-3, with respect to control): 1.19 fold change
- IC50 ([19]; read-out: IC50 HYAL, A431): 12.81 ± 0.01 µM
- IC50 ([19]; read-out: IC50 HYAL, A549): 36.8 ± 5.65 µM
- percent increase in the ROS level [20]: 20.45 ± 0.35%
- effect on tubulin polymerization [21]: inhibit the polymerization of α and β tubulin
- ODC mRNA expression level ([22]; A431, with respect to control): 1.15 fold change
- ODC mRNA expression level ([22]; A549, with respect to control): 1.18 fold change
- ODC mRNA expression level ([22]; FaDu, with respect to control): 1.08 fold change
- ODC mRNA expression level [22, 31]: 1.05 fold change
- ODC mRNA expression level ([22]; PC-3, with respect to control): 1.22 fold change
- PI3K level (ng/mg of protein) [23]: 0.006 ± 0.00021 ng/mg
- IC50 [24]: 82.1 ± 1.97 µM
- total of FITC mean (Rh123) ([25]; 10 µM): 3101 ± 1.41
- total of FITC mean (Rh123) ([25]; 100 µM): 2913 ± 1.41
- percent decrease of mitochondrial membrane potential concerning control ([25]; A431, highest concentration, 24 h, spectrofluorometer): 13.05 ± 2.6%
- IC50 [26]: 81.01 ± 0.59 µM
- cell cycle phase arrested [27]: G2/M phase
- LOX-5 mRNA expression level ([28]; A431, with respect to control): 1.25 fold change
- LOX-5 mRNA expression level ([28]; FaDu, with respect to control): 1.26 fold change
- LOX-5 mRNA expression level ([28]; K562, with respect to control): 1.10 fold change
- AKT level (ng/mg of protein) [29]: 0.125 ± 0.004 ng/mg
- cell cycle phase arrested [30]: arrests the S-phase
